Test results: ChEMBL document CHEMBL1201862, “PubChem BioAssay data set” (2004)
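Method: 48-hour compound exposure of cells in 96-well plates, five concentrations, linear interpolation of endpoints. At the GI50, growth is halved.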 The source made the active and inactive calls. Cut-off read from the data, not from the text of the source: active = GI50 up to about 1.1 µM and inactive = higher.

Columns and labels:
Assay in all cases: DTP human tumour cell line panel, 48 h
DMS-273 = test system: DMS-273
OVCAR-5 = test system: OVCAR-5
RPMI-8226 = test system: RPMI-8226
LOX IMVI = test system: LOX IMVI
786-0 = test system: 786-0
Malme-3M = test system: Malme-3M
SNB-78 = test system: SNB-78
KM12 = test system: KM12
KM-20L2 = test system: KM-20L2
SR = test system: SR
HCC 2998 = test system: HCC 2998
SF-539 = test system: SF-539
LXFL 529 = test system: LXFL 529
HOP-62 = test system: HOP-62
M19-MEL = test system: M19-MEL

Row | SMILES | GI50 (DMS-273) | GI50 (OVCAR-5) | GI50 (RPMI-8226) | GI50 (LOX IMVI) | GI50 (786-0) | GI50 (Malme-3M) | GI50 (SNB-78) | GI50 (KM12) | GI50 (KM-20L2) | GI50 (SR) | GI50 (HCC 2998) | GI50 (SF-539) | GI50 (LXFL 529) | GI50 (HOP-62) | GI50 (M19-MEL)
1 | CC[P+](C)(Cc1ccccc1)c1ccccc1 (stereo not given) | > 100 µM (inactive) | > 100 µM (inactive) | 57.4 µM (inactive) | > 100 µM (inactive) | > 100 µM (inactive) | 91.8 µM (inactive) | > 100 µM (inactive) | > 100 µM (inactive) | > 100 µM (inactive) | > 100 µM (inactive) | > 100 µM (inactive) | > 100 µM (inactive) | 74.6 µM (inactive) | > 100 µM (inactive) | 43.4 µM (inactive)
2 | CC(=O)c1cccc(C)c1C(=O)O | > 100 µM (inactive) | > 100 µM (inactive) | > 100 µM (inactive) | > 100 µM (inactive) | > 100 µM (inactive) | > 100 µM (inactive) | 95.5 µM (inactive) | > 100 µM (inactive) | > 100 µM (inactive) | > 100 µM (inactive) | > 100 µM (inactive) | – | > 100 µM (inactive) | > 100 µM (inactive) | > 100 µM (inactive)
3 | COc1cc2ccc(C(=O)O)cc2cc1OC | > 100 µM (inactive) | > 100 µM (inactive) | > 100 µM (inactive) | > 100 µM (inactive) | > 100 µM (inactive) | > 100 µM (inactive) | > 100 µM (inactive) | > 100 µM (inactive) | > 100 µM (inactive) | – | – | > 100 µM (inactive) | > 100 µM (inactive) | > 100 µM (inactive) | > 100 µM (inactive)
4 | O=C1C=C(c2ccccc2)NC1(c1ccccc1)c1cc(-c2ccccc2)[nH]c1-c1ccccc1 (stereo not given) | > 100 µM (inactive) | – | – | – | > 100 µM (inactive) | – | > 100 µM (inactive) | > 100 µM (inactive) | > 100 µM (inactive) | > 100 µM (inactive) | > 100 µM (inactive) | > 100 µM (inactive) | > 100 µM (inactive) | 2.21 µM (inactive) | > 100 µM (inactive)
5 | CCC1=C(CC)C1(C#N)[N+](=O)[O-] | > 100 µM (inactive) | > 100 µM (inactive) | 82.2 µM (inactive) | > 100 µM (inactive) | > 100 µM (inactive) | > 100 µM (inactive) | > 100 µM (inactive) | > 100 µM (inactive) | > 100 µM (inactive) | > 100 µM (inactive) | – | > 100 µM (inactive) | > 100 µM (inactive) | > 100 µM (inactive) | > 100 µM (inactive)
6 | CC(C)c1cccc(C(C)C)c1NC(=O)CCC(=O)NN | 61.5 µM (inactive) | > 100 µM (inactive) | 46.1 µM (inactive) | – | > 100 µM (inactive) | > 100 µM (inactive) | > 100 µM (inactive) | > 100 µM (inactive) | > 100 µM (inactive) | – | > 100 µM (inactive) | > 100 µM (inactive) | > 100 µM (inactive) | > 100 µM (inactive) | > 100 µM (inactive)
7 | O=C(CC/C(CC(=O)c1ccc(Cl)cc1)=N\O)Nc1cccc(Cl)c1 | > 100 µM (inactive) | > 100 µM (inactive) | > 100 µM (inactive) | > 100 µM (inactive) | > 100 µM (inactive) | > 100 µM (inactive) | > 100 µM (inactive) | > 100 µM (inactive) | > 100 µM (inactive) | – | > 100 µM (inactive) | > 100 µM (inactive) | > 100 µM (inactive) | > 100 µM (inactive) | > 100 µM (inactive)
8 | CC1=C(NC(=O)C(=O)NNC(=O)c2ccncc2)C(=O)c2ccccc2C1=O | 5.48 µM (inactive) | 17 µM (inactive) | 19.5 µM (inactive) | 3.66 µM (inactive) | 18.2 µM (inactive) | 5.26 µM (inactive) | 14.5 µM (inactive) | 15.3 µM (inactive) | 23.4 µM (inactive) | 9.12 µM (inactive) | 16.9 µM (inactive) | 17.2 µM (inactive) | 14.6 µM (inactive) | 17.5 µM (inactive) | 1.64 µM (inactive)
9 | O=C(OCc1ccccc1)c1ccccc1-c1c2ccc(=O)cc-2oc2cc(OCc3ccccc3)ccc12 | 7.03 µM (inactive) | 19.8 µM (inactive) | 5.48 µM (inactive) | 6.43 µM (inactive) | 15.1 µM (inactive) | 12.1 µM (inactive) | 22.6 µM (inactive) | 12.7 µM (inactive) | 14.6 µM (inactive) | 4.49 µM (inactive) | 19.6 µM (inactive) | 13.6 µM (inactive) | 4.88 µM (inactive) | – | 20.3 µM (inactive)
10 | CC(C)N(C(=O)C12C3C4C1C1C2C3C41C(=O)N(C(C)C)C(C)C)C(C)C (stereo not given) | > 50 µM (inactive) | > 50 µM (inactive) | > 50 µM (inactive) | > 50 µM (inactive) | > 50 µM (inactive) | > 50 µM (inactive) | > 50 µM (inactive) | > 50 µM (inactive) | > 50 µM (inactive) | – | > 50 µM (inactive) | > 50 µM (inactive) | > 50 µM (inactive) | > 50 µM (inactive) | > 50 µM (inactive)
11 | [N-]=[N+]=C1C(=O)C2CC3CC(C2)CC1C3 | > 100 µM (inactive) | > 100 µM (inactive) | > 100 µM (inactive) | > 100 µM (inactive) | > 100 µM (inactive) | > 100 µM (inactive) | > 100 µM (inactive) | > 100 µM (inactive) | > 100 µM (inactive) | > 100 µM (inactive) | > 100 µM (inactive) | > 100 µM (inactive) | > 100 µM (inactive) | > 100 µM (inactive) | > 100 µM (inactive)
12 | CC1(C)Cc2c(oc3ncnc(N)c23)CS1 | > 100 µM (inactive) | > 100 µM (inactive) | > 100 µM (inactive) | > 100 µM (inactive) | > 100 µM (inactive) | > 100 µM (inactive) | > 100 µM (inactive) | > 100 µM (inactive) | > 100 µM (inactive) | > 100 µM (inactive) | > 100 µM (inactive) | > 100 µM (inactive) | > 100 µM (inactive) | > 100 µM (inactive) | > 100 µM (inactive)
13 | CCCNC(=O)C1C(=O)C(=O)N(CCC)C1=O (stereo not given) | > 100 µM (inactive) | 56.9 µM (inactive) | > 100 µM (inactive) | > 100 µM (inactive) | > 100 µM (inactive) | > 100 µM (inactive) | > 100 µM (inactive) | > 100 µM (inactive) | > 100 µM (inactive) | – | > 100 µM (inactive) | > 100 µM (inactive) | > 100 µM (inactive) | > 100 µM (inactive) | > 100 µM (inactive)
14 | O=C(O)c1ccc(Nc2nc3nn(Cc4ccccc4)cc3c(=O)s2)cc1 | > 100 µM (inactive) | > 100 µM (inactive) | > 100 µM (inactive) | > 100 µM (inactive) | > 100 µM (inactive) | > 100 µM (inactive) | > 100 µM (inactive) | > 100 µM (inactive) | > 100 µM (inactive) | > 100 µM (inactive) | > 100 µM (inactive) | > 100 µM (inactive) | > 100 µM (inactive) | > 100 µM (inactive) | > 100 µM (inactive)
15 | Cc1ccc(C2OC(COCc3ccc(Cl)cc3)C(OCc3ccc(Cl)cc3)C2O)cc1 (stereo not given) | 5.82 µM (inactive) | > 100 µM (inactive) | 4.76 µM (inactive) | – | > 10 µM (inactive) | > 10 µM (inactive) | 14.3 µM (inactive) | 9.38 µM (inactive) | 12.6 µM (inactive) | 3.22 µM (inactive) | 19.3 µM (inactive) | 16 µM (inactive) | 8.47 µM (inactive) | – | 11.4 µM (inactive)
16 | CCOC(C)OCC#CCCBr (stereo not given) | > 100 µM (inactive) | > 100 µM (inactive) | > 100 µM (inactive) | > 100 µM (inactive) | > 100 µM (inactive) | > 100 µM (inactive) | > 100 µM (inactive) | > 100 µM (inactive) | > 100 µM (inactive) | – | > 100 µM (inactive) | > 100 µM (inactive) | > 100 µM (inactive) | > 100 µM (inactive) | > 100 µM (inactive)
17 | CC(=O)O[C@]12CCCCCC1C1(O)C(O)CCCCC12 (stereo not given in full) | > 100 µM (inactive) | – | > 100 µM (inactive) | > 100 µM (inactive) | > 100 µM (inactive) | > 100 µM (inactive) | > 100 µM (inactive) | > 100 µM (inactive) | > 100 µM (inactive) | > 100 µM (inactive) | – | – | > 100 µM (inactive) | > 100 µM (inactive) | > 100 µM (inactive)
18 | CC1=C2C(=CC(C)(CO)C2O)C(=O)C(C)(O)C12CC2 (stereo not given) | 0.00162 µM (active) | 0.00673 µM (active) | 0.895 µM (active) | 0.00161 µM (active) | 0.00337 µM (active) | 0.00361 µM (active) | 0.00144 µM (active) | 0.00228 µM (active) | 0.00216 µM (active) | 0.00347 µM (active) | 0.00213 µM (active) | 0.00569 µM (active) | 0.00393 µM (active) | 0.00433 µM (active) | 0.00337 µM (active)
19 | Cc1c(C(=O)/C=C/c2ccc3c(c2)OCO3)[n+]([O-])c2ccccc2[n+]1[O-] | 22.6 µM (inactive) | 27.8 µM (inactive) | 27 µM (inactive) | 26.1 µM (inactive) | 42.1 µM (inactive) | 89.5 µM (inactive) | 36.2 µM (inactive) | 31.9 µM (inactive) | 22.3 µM (inactive) | 30.3 µM (inactive) | 23.1 µM (inactive) | 22.5 µM (inactive) | 22.2 µM (inactive) | > 100 µM (inactive) | 35.2 µM (inactive)
